Our source for the IC50 and MIC values is patent publication US20080090849A1, “NOVEL PURINE DERIVATIVES, PREPARATION METHOD AND USE AS MEDICINES” (AVENTIS PHARMA S.A., priority 2000, published 2008).

For one experiment, the target named is CaCiv1 (Candida albicans, UniProt A0A1D8PH53). Nature of the experiment: Test of inhibition of the activity of CIV-CDK (CIV1). The experiment is classed as biochemical. How it is done:
(Details of the Excipient: Lactose, Talc, Starch, Magnesium Stearate.) Pharmacological Part: 1) Test of Inhibition of the Activity of CIV-CDK (CIV1) a) PREPARATION of the Reagents […]
967 μl Buffer [50 mM Tris-HCl−0.1 M NaCl−pH 7.5]
−0.1% BSA+30 μl Cdk2 (1 mg/ml)
(2)-3× Inhibitor Cocktail
Prepare a 3× range of inhibitor in 3% of DMSO-Buffer
[50 mM Tris-HCl−0.1 M NaCl−pH 7.5]−0.1% BSA
ATP−pH 7.5+1 tablet of protease inhibitors (Complete EDTA Free™) per 5 ml of Buffer b) Carrying Out of the Test
1)—mix 30 μl of the 3× enzyme cocktail (1) with 30 μl of the 3× inhibitor cocktail (2) 2)—add 30 μl of the 3×ATP cocktail (3) (start of the reaction)
3)—incubate for 30 min at room temperature (20 to 25° C.)
4)—stop the reaction by adding 250 μl of Buffer [50 mM Tris-HCl−0.1 M NaCl−pH 7.5]−0.1% BSA−25 mM EDTA 5)—distribute 100 μl into a plate coated with antibodies directed against the reaction substrate 6)—incubate for 60 min at room temperature, stirring gently and then wash 3 times with 300 μl Buffer [50 mM Tris-HCl−0.1 M NaCl−pH 7.5]−0.05% Tween20
9)—Place the plate to dry for 30 min at 37° C.
10)—Place for counting in a scintillation counter c) Results Obtained, Expressed as IC50 Expressed in Micromolar

For the next experiment, the system named is fungus. Nature of the experiment: Minimum inhibitory concentration (MIC), NCCLS M27-A broth dilution antifungal susceptibility test. The format is cell-based. The settings on record: RPMI 1640 medium, 37° C., visual reading, inhibition of at least 80% of growth; test strain not named. From the text:
A constant number of cells of a given strain are exposed to increasing concentrations of an antifungal, under conditions taken from NCCLS (National Committee for Clinical Laboratory Standards, 1997 [reference method for broth dilution antifungal susceptibility testing of yeasts]. Approved Standard M27-A. NCCLS, Villanova, Pa.); the minimum concentration with which a visible reduction in the cloudiness from cell growth was observed (at least 80% relative to a control with no product) is the minimum inhibitory concentration (MIC) of the antifungal for the test strain.
Supplement the L-glutamine-free RPMI 1640 medium (liquid) with L-glutamine (0.3 g/l or 10.5 ml of a solution at 200 mM) and buffer with 34.54 g/l (0.165 M) of M morpholinepropanesulfonic acid (MOPS). Sterilize the medium by filtration. Distribute 100 μl of RPMI medium into each well of a 96-well microplate. Distribute the appropriate volume of the antifungal solution in the first column of the microplate and adjust with medium to 200 μl. Carry out a 2-fold serial dilution in order to establish a range of 11 concentrations in each lane of the microplate. The 12th well of each row will serve as a control for growth. Prepare the cellular suspension from a (liquid or agar) culture or from a frozen vial, dilute it in RPMI medium in order to obtain a cellular suspension at 5×10^3-2×10^4 cells/ml. Distribute 100 μl of the cellular suspension into the microplate. The MIC for all the Candida species was read after 24-48 h, for Cryptococcus and Aspergillus after 48-72 h of incubation at 37° C. in a normal atmosphere. The MIC is read by visual readings by determining the well which contains the lowest dose of antifungal which causes an inhibition of at least 80% of the growth of the fungus.
For orientation: In broth dilution the organism is exposed to a series of concentrations in liquid medium.

The mark [1] stands for this setting: CaCiv1 with Cdk2, [33P]ATP, 30 min at room temperature, scintillation counting, read-out: IC50.

The structures appear in SMILES notation. In brackets after ≈: the same amount, converted by molar mass. Where a name gives a salt, the structure may show the parent alone. Read-outs that look alike come from different tables or passages of the source.

Sequence of CaCiv1 (A0A1D8PH53 entry or part of it): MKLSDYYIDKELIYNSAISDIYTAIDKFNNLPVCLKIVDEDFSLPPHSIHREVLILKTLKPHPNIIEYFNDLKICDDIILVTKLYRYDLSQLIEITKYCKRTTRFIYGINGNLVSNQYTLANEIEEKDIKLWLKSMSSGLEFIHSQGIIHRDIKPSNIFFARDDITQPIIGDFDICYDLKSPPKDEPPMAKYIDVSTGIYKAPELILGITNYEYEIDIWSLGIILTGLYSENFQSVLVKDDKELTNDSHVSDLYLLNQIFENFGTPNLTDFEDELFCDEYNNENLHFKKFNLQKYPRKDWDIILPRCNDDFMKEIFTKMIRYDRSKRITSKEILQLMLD

The IC50 is the concentration needed to halve the response being measured. At CaCiv1, `CCOC(=O)c1ccc(Nc2[nH]c(N[C@H]3CC[C@H](N)CC3)nc3ncnc2-3)cc1` [Example 1, Ethyl trans-4-[[2-[(4-aminocyclohexyl)amino]-1H-purin-6-yl]amino]benzoate dihydrochloride] displayed an IC50 of 0.5 µM.
As to `N[C@H]1CC[C@H](Nc2nc(Nc3ccccc3)c3nc[nH]c3n2)CC1` [Example 11, Trans-N2-(4-aminocyclohexyl)-N6-[4-phenyl]-1H-purine-2,6-diamine dihydrochloride], on CaCiv1 (setting [1]), the IC50 worked out at 2.5 µM.
In the case of `CCOC(=O)c1cccc(Nc2nc(N[C@H]3CC[C@H](N)CC3)nc3[nH]cnc23)c1` [Example 14, Ethyl trans-3-[[2-[(4-aminocyclohexyl)amino]-9H-purin-6-yl]amino]benzoate], the half-maximal inhibitory concentration (IC50) on CaCiv1 (setting [1]) came out at 2 µM.
By MIC is commonly meant the lowest concentration found to suppress growth. Turning to `N[C@H]1CC[C@H](Nc2nc(Nc3ccc(Cl)cc3)c3nc[nH]c3n2)CC1` [Example 15, Trans-N2-(4-aminocyclohexyl)-N6-(4-chlorophenyl)-9H-purine-2,6-diamine], in the experiment with fungus, the MIC is 100 µg/mL (≈ 279 µM).
`N[C@H]1CC[C@H](Nc2nc(Nc3ccc(Cl)c(Cl)c3)c3nc[nH]c3n2)CC1` [Example 16, trans-N2-(4-aminocyclohexyl)-N6-(3,4-dichlorophenyl)-9H-purine-2,6-diamine]: the MIC in the experiment on fungus worked out at 25 µg/mL (≈ 63.7 µM). The IC50 on CaCiv1 (setting [1]) was 2.9 µM.
For `CCCCOC(=O)c1ccc(Nc2nc(N[C@H]3CC[C@H](N)CC3)nc3[nH]cnc23)cc1` [Example 17, Butyl trans-4-[[2-[(4-aminocyclohexyl)amino]-9H-purin-6-yl]amino]benzoate], the MIC in the experiment on fungus was 12.5 µg/mL (≈ 29.5 µM). Moreover, at CaCiv1 (setting [1]), the IC50 was found to be 5.6 µM.
On to `CCN(CC)CCOC(=O)c1ccc(Nc2nc(N[C@H]3CC[C@H](N)CC3)nc3[nH]cnc23)cc1` [Example 18, 2-(diethylamino)ethyl trans-4-[[2-[(4-aminocyclohexyl)amino]-9H-purin-6-yl]amino]benzoate], for which the IC50 at CaCiv1 (setting [1]) was determined as 4.3 µM.
Same read-out and setting: in the case of `N[C@H]1CC[C@H](Nc2nc(Nc3ccc(C(=O)Nc4ccccc4)cc3)c3nc[nH]c3n2)CC1` [Example 19, Trans-4-[[2-[(4-aminocyclohexyl)amino]-9H-purin-6-yl]amino]-N-phenylbenzamide] it was 3.8 µM.
